Experimental data reported in article PMC12335596 (Scientific Reports, 2025).

Columns and labels:
urease (JBU; EC 3.5.1.5) = urease (JBU; EC 3.5.1.5) (Canavalia ensiformis, UniProt P07374); experiment: In vitro urease inhibitory activity; format: biochemical, Jack bean
Jack bean urease = Jack bean urease (Canavalia ensiformis, UniProt P07374); experiment: Kinetic study, Lineweaver–Burk plot analysis; format: biochemical; conditions: varying concentrations of inhibitor and urea; Vmax decreased, Km increased
Sequence of Jack bean urease (P07374 whole entry, looked up): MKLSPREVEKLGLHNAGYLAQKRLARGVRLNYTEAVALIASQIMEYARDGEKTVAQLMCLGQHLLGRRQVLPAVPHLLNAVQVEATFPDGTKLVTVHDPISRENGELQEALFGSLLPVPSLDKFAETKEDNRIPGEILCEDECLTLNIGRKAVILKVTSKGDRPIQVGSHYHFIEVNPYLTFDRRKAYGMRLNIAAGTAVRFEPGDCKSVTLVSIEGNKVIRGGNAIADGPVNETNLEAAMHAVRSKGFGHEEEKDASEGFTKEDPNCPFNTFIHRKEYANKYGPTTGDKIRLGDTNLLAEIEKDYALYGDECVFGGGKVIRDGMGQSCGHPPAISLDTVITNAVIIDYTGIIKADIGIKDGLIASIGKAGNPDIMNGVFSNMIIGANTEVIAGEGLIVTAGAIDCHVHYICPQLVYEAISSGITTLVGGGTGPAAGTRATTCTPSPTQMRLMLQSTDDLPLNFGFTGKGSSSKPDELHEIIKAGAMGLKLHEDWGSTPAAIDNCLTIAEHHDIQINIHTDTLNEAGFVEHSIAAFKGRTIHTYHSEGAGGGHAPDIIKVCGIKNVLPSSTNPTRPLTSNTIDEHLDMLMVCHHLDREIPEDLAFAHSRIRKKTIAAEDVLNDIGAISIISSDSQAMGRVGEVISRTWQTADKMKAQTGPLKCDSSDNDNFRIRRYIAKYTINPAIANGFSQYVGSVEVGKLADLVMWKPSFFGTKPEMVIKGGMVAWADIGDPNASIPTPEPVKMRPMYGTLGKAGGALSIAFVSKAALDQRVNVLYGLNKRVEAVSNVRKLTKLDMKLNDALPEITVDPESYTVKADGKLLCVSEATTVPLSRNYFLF

Sequence of urease (JBU; EC 3.5.1.5) (P07374 whole entry, looked up): as above

Compound	IC50 (urease (JBU; EC 3.5.1.5)) [nM]	also measured
COc1cc(-c2nc3cc(C(=O)N4CCN(c5ccccc5)CC4)ccc3[nH]2)ccc1OCC(=O)Nc1cccc([N+](=O)[O-])c1 [Compound 9 L, 2-(2-Methoxy-4-(5-(4-phenylpiperazine-1-carbonyl)−1H-benzo[d]imidazol-2-yl)phenoxy)-N-(3-nitrophenyl)acetamide]	150 ± 90	mode of enzyme inhibition (Jack bean urease): mixed inhibitor
COc1ccc(NC(=O)COc2ccc(-c3nc4cc(C(=O)N5CCN(c6ccccc6)CC5)ccc4[nH]3)cc2OC)cc1 [Compound 9 g, 2-(2-Methoxy-4-(5-(4-phenylpiperazine-1-carbonyl)−1H-benzo[d]imidazol-2-yl)phenoxy)-N-(4-methoxyphenyl)acetamide]	–	fold more potent than 9d (urease (JBU; EC 3.5.1.5); ratio of IC50 values vs compound 9d): seven-fold
COc1cc(-c2nc3cc(C(=O)N4CCN(c5ccccc5)CC4)ccc3[nH]2)ccc1OCC(=O)Nc1ccccc1F [Compound 9 h, N-(2-Fluorophenyl)−2-(2-methoxy-4-(5-(4-phenylpiperazine-1-carbonyl)−1H-benzo[d]imidazol-2-yl)phenoxy)acetamide]	2400 ± 360	–
COc1cc(-c2nc3cc(C(=O)N4CCN(c5ccccc5)CC4)ccc3[nH]2)ccc1OCC(=O)Nc1ccc([N+](=O)[O-])cc1 [Compound 9 m, 2-(2-Methoxy-4-(5-(4-phenylpiperazine-1-carbonyl)−1H-benzo[d]imidazol-2-yl)phenoxy)-N-(4-nitrophenyl)acetamide]	350 ± 340	–
COc1cc(-c2nc3cc(C(=O)N4CCN(c5ccccc5)CC4)ccc3[nH]2)ccc1OCC(=O)Nc1ccccc1 [Compound 9a, 2-(2-Methoxy-4-(5-(4-phenylpiperazine-1-carbonyl)−1H-benzo[d]imidazol-2-yl)phenoxy)-N-phenylacetamide]	11100 ± 1180	fold more potent than standard thiourea (X) (urease (JBU; EC 3.5.1.5); ratio of IC50 values, standard thiourea vs compound): two-fold
COc1cc(-c2nc3cc(C(=O)N4CCN(c5ccccc5)CC4)ccc3[nH]2)ccc1OCC(=O)Nc1ccccc1C [Compound 9b, 2-(2-Methoxy-4-(5-(4-phenylpiperazine-1-carbonyl)−1H-benzo[d]imidazol-2-yl)phenoxy)-N-(o-tolyl)acetamide]	820 ± 100	–
COc1cc(-c2nc3cc(C(=O)N4CCN(c5ccccc5)CC4)ccc3[nH]2)ccc1OCC(=O)Nc1ccc(C)cc1 [Compound 9d, 2-(2-Methoxy-4-(5-(4-phenylpiperazine-1-carbonyl)−1H-benzo[d]imidazol-2-yl)phenoxy)-N-(p-tolyl)acetamide]	12200 ± 1090	–
COc1cc(-c2nc3cc(C(=O)N4CCN(c5ccccc5)CC4)ccc3[nH]2)ccc1OCC(=O)Nc1c(C)cccc1C [Compound 9e, N-(2,6-Dimethylphenyl)−2-(2-methoxy-4-(5-(4-phenylpiperazine-1-carbonyl)−1H-benzo[d]imidazol-2-yl)phenoxy)acetamide]	1260 ± 60	–
CCc1ccc(NC(=O)COc2ccc(-c3nc4cc(C(=O)N5CCN(c6ccccc6)CC5)ccc4[nH]3)cc2OC)cc1 [Compound 9f, N-(4-Ethylphenyl)−2-(2-methoxy-4-(5-(4-phenylpiperazine-1-carbonyl)−1H-benzo[d]imidazol-2-yl)phenoxy)acetamide]	510 ± 100	–
COc1cc(-c2nc3cc(C(=O)N4CCN(c5ccccc5)CC4)ccc3[nH]2)ccc1OCC(=O)Nc1ccccc1Cl [Compound 9i, N-(2-Chlorophenyl)−2-(2-methoxy-4-(5-(4-phenylpiperazine-1-carbonyl)−1H-benzo[d]imidazol-2-yl)phenoxy)acetamide]	9240 ± 370	–
COc1cc(-c2nc3cc(C(=O)N4CCN(c5ccccc5)CC4)ccc3[nH]2)ccc1OCC(=O)Nc1cccc(Cl)c1 [Compound 9j, N-(3-Chlorophenyl)−2-(2-methoxy-4-(5-(4-phenylpiperazine-1-carbonyl)−1H-benzo[d]imidazol-2-yl)phenoxy)acetamide]	2720 ± 70	–
COc1cc(-c2nc3cc(C(=O)N4CCN(c5ccccc5)CC4)ccc3[nH]2)ccc1OCC(=O)Nc1ccc(Cl)cc1 [Compound 9k, N-(4-Chlorophenyl)−2-(2-methoxy-4-(5-(4-phenylpiperazine-1-carbonyl)−1H-benzo[d]imidazol-2-yl)phenoxy)acetamide]	1780 ± 240	–
